In ChEMBL document CHEMBL1201862, “PubChem BioAssay data set” (2004):
Activity calls are given as the source filed them.

Key:
[1] = target: DNA dC->dU-editing enzyme APOBEC-3G (Homo sapiens, UniProt Q9HC16); type: functional;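 further: Dose-response counterscreen measuring inhibition of APOBEC3G DNA deaminase activity, run while confirming APOBEC3A inhibitors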
[2] = target: T1, Cytochrome P450 2C9 (Homo sapiens, UniProt P11712)
[3] = target: Cytochrome P450 2C19 (Homo sapiens, UniProt P33261); experiment: Cytochrome panel assay with activity outcomes. Panel member name: p450-cyp2c19 Compounds with AC50 equal or less than 10 uM are considered active; type: functional
Chain of Cytochrome P450 2C19 (P33261 whole entry): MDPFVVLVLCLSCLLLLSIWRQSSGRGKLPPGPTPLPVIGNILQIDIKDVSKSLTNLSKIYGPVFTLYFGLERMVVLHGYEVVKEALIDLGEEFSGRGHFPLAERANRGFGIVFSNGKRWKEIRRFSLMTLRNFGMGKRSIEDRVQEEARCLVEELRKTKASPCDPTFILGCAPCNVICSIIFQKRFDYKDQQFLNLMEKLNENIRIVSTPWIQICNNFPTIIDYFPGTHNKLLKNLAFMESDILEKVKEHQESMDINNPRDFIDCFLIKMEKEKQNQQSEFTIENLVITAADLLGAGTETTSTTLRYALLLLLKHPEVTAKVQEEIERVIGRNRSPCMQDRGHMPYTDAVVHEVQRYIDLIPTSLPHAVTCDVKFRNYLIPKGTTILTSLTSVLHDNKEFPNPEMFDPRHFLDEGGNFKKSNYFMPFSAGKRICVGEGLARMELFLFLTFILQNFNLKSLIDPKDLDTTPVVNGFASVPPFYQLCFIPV

[4] = target: DNA dC->dU-editing enzyme APOBEC-3A (Homo sapiens, UniProt P31941); experiment: Dose Response confirmation of small molecule APOBEC3A DNA Deaminase Inhibitors via a fluorescence-based single-stranded DNA deaminase assay. [Related pubchem assays (depositor defined):AID493011, AID493024]; type: functional
Chain of DNA dC->dU-editing enzyme APOBEC-3A (P31941 whole entry): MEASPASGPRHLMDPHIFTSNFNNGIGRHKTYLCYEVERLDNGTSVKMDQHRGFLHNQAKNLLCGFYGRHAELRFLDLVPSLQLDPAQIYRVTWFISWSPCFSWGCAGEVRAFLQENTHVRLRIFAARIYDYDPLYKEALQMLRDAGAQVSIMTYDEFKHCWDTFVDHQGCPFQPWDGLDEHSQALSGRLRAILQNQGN

[5] = target: T2, Microphthalmia-associated transcription factor (Homo sapiens, UniProt O75030); experiment: reducers of TRPM1 reporter luminescence, concentration series – cell-based, SK-MEL-5, cherry-picked, set 3, MITF inhibitor project, dose response (AID 493073); type: functional;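 further: SK-MEL-5 melanoma cells with luciferase driven by the MITF target TRPM1 promoter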
T2 sequence (O75030 whole entry): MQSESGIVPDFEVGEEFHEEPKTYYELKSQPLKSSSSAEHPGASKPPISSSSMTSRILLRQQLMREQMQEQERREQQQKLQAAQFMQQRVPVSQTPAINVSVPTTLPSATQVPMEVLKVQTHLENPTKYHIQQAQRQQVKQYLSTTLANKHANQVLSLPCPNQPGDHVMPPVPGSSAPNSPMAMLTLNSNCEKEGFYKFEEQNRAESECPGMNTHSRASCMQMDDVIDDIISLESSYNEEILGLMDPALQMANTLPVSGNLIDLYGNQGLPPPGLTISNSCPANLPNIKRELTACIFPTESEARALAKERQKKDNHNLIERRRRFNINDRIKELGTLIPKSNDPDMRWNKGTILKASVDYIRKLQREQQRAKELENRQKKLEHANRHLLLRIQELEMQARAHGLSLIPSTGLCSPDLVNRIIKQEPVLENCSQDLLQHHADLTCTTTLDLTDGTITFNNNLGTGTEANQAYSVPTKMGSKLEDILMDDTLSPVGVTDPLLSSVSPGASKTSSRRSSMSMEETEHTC

[6] = Trypanosoma cruzi growth suppression in host cells – NIH3T3 host cells, beta-gal luminescence, confirmation (AID 2044); type: functional, cell-based;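 further: intracellular parasites grown in NIH/3T3 mouse fibroblasts as host cells; luminescent beta-galactosidase reporter signal from transgenic T. cruzi replicating inside host cells; inhibitors lower the luminescence signal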
[7] = NIH3T3 cell viability loss – ATP luminescence, mouse fibroblasts, counter-screen, dose response (AID 2010); type: functional, cell-based;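 further: cells exposed to compound for about 90 hours before reading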
[8] = target: Cytochrome P450 3A4 (Homo sapiens, UniProt P08684);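 further: CYP3A4 tested as one member of a cytochrome P450 panel screen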
Chain of Cytochrome P450 3A4 (P08684 whole entry): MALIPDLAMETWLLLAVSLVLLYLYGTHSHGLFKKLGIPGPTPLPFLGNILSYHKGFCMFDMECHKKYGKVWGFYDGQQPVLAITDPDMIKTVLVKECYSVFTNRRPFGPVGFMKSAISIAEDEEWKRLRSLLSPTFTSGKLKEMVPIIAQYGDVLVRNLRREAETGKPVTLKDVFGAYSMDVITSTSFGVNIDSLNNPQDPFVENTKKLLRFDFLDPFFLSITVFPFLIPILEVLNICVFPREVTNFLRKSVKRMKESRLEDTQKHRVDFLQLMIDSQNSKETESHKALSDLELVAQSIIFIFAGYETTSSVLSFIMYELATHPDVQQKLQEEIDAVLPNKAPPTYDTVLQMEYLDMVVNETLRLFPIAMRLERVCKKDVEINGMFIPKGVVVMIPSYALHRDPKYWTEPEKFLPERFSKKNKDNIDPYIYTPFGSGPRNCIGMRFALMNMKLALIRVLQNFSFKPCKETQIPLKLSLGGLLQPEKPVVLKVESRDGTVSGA

[9] = target: T1, Cytochrome P450 2C9; remark: listed apart in the source
[10] = system: BJ; experiment: BJ-TERT fibroblast viability loss – cell-based, RAS-independent, luminescence, dose response (AID 1933); type: functional; conditions: Homo sapiens
[11] = target: T3, Cytochrome P450 1A2 (Homo sapiens, UniProt P05177);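 further: PubChem cytochrome P450 panel assay, CYP1A2 panel member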
T3 sequence (P05177 whole entry): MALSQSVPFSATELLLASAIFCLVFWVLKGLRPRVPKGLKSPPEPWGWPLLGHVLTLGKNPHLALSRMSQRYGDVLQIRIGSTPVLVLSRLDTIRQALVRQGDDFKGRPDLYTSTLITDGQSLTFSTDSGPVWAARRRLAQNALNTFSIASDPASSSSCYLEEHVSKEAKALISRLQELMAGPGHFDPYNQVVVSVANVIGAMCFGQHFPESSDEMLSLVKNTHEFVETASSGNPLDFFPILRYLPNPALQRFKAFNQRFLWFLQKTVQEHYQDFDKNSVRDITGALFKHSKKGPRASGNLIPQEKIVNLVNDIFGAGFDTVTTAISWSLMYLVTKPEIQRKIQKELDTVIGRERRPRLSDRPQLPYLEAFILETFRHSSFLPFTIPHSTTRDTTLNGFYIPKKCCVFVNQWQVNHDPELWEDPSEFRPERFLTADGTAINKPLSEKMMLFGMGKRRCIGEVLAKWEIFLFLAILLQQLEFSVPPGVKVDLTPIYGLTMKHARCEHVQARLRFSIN

[12] = DRD fibroblast viability loss – cell-based, non-viral oncogenic, luminescence, dose response (AID 1934); type: functional; conditions: Homo sapiens
[13] = system: BJ; experiment: cells; type: functional, cell-based; conditions: Homo sapiens
[14] = system: BJ; experiment: BJ-TERT-LT-ST fibroblast viability loss – cell-based, RAS-independent, luminescence, dose response (AID 1935); type: functional; conditions: Homo sapiens;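 further: BJ fibroblasts immortalized with TERT plus LT and ST oncogenes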
[15] = target: T4, Histone-lysine N-methyltransferase NSD2 (Homo sapiens, UniProt O96028); type: biochemical
T4 sequence (O96028 whole entry): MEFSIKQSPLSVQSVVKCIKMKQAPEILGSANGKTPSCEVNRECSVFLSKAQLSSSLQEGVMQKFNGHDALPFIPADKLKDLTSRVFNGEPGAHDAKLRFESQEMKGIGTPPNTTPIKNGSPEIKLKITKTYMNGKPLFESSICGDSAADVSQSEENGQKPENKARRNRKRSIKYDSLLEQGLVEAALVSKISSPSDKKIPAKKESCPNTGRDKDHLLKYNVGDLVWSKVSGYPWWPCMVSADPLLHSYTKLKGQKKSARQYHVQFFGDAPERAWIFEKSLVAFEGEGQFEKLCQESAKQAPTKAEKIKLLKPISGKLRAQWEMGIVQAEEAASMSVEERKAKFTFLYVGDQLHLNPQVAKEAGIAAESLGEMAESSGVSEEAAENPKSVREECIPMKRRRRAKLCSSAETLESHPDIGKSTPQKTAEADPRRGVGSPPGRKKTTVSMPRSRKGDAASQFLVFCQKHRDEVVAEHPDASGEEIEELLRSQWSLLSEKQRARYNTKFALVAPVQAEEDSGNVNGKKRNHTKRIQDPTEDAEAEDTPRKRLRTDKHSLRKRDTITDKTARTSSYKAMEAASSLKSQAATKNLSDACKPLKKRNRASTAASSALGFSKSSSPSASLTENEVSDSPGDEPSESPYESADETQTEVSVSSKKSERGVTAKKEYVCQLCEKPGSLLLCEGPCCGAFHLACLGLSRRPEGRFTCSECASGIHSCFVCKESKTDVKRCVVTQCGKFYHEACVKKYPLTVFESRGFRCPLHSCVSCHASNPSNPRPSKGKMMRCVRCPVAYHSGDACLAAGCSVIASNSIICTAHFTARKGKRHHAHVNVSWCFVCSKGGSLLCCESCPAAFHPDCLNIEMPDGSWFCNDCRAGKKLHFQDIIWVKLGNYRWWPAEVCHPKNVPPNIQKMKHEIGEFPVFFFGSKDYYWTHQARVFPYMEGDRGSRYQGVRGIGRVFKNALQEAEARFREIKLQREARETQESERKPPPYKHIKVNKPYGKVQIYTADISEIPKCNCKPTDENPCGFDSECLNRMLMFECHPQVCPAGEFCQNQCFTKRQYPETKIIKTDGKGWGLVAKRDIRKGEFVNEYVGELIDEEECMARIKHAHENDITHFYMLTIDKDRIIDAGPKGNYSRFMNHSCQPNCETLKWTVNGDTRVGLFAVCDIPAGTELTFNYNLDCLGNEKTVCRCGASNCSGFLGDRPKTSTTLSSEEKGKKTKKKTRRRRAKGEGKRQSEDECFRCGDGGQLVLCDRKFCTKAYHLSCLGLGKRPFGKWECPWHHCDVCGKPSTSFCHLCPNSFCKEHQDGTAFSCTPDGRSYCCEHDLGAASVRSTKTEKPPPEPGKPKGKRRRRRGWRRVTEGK

[16] = target: T5, Polyadenylate-binding protein 1 (Homo sapiens, UniProt P11940); experiment: MLLE binding blockers, Cy5 peptide tracer – biochemical, fluorescence polarization, Cy5-PAM2 peptide, secondary, miRNA deadenylation inhibitor project, dose response (AID 602260); type: functional; conditions: read-out: IC50_Mean
T5 sequence (P11940 whole entry): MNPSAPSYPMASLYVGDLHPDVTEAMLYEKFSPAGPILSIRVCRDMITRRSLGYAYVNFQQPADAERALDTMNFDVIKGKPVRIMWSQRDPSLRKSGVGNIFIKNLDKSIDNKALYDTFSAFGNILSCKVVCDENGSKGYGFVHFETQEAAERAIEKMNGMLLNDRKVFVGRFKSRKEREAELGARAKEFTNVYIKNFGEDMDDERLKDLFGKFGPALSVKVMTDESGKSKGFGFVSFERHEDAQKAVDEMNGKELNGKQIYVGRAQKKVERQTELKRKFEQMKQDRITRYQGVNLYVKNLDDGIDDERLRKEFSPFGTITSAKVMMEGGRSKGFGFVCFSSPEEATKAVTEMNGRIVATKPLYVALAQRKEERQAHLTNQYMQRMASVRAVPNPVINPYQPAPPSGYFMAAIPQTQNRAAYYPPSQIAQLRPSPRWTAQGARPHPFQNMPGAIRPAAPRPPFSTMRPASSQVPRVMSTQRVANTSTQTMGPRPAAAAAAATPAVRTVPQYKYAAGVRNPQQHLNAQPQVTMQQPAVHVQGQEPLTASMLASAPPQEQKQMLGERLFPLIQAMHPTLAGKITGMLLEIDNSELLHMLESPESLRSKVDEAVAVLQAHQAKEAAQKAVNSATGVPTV

[17] = target: T6, Tyrosyl-DNA phosphodiesterase 2 (Homo sapiens, UniProt O95551); experiment: potency against TDP2 phosphodiesterase activity – biochemical, epi absorbance, IC50, dose response (AID 743297)
T6 sequence (O95551 whole entry): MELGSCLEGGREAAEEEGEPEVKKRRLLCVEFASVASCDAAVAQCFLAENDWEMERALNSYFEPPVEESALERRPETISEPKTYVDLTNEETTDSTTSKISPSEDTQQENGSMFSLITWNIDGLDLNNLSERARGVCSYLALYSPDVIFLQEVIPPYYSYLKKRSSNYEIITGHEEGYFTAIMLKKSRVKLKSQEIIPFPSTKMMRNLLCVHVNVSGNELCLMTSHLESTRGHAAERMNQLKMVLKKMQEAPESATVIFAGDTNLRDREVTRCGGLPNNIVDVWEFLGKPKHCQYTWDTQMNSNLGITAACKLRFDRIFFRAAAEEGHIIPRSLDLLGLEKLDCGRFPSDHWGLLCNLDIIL

[18] = target: T5, Polyadenylate-binding protein 1; experiment: MLLE domain peptide-binding blockers, IC50 – biochemical, fluorescence polarization, FITC-PAM2 peptide, dose response (AID 602259); type: functional; conditions: read-out: IC50_Mean
[19] = target: Cytochrome P450 2D6 (Homo sapiens, UniProt P10635);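 further: CYP2D6 member of a cytochrome P450 panel assay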
Chain of Cytochrome P450 2D6 (P10635 whole entry): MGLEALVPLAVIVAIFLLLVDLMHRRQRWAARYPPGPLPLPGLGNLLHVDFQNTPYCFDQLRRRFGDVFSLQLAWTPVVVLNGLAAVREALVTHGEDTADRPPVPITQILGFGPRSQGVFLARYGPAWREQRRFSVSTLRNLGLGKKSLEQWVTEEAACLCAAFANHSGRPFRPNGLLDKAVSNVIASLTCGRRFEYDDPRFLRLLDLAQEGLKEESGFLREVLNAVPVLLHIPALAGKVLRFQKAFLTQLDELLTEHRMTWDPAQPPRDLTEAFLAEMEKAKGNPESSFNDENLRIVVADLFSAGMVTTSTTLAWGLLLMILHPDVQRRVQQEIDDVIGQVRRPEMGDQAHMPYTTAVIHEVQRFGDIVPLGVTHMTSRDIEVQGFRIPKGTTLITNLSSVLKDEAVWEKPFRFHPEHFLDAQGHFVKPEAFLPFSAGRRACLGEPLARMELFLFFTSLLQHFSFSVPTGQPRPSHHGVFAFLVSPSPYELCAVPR

[20] = target: T7, Mannose-6-phosphate isomerase (Homo sapiens, UniProt P34949); experiment: MPI inhibition at elevated mannose 6-phosphate – biochemical, fluorescence intensity, high mannose 6-phosphate, primary screen (AID 1220)
T7 sequence (P34949 whole entry): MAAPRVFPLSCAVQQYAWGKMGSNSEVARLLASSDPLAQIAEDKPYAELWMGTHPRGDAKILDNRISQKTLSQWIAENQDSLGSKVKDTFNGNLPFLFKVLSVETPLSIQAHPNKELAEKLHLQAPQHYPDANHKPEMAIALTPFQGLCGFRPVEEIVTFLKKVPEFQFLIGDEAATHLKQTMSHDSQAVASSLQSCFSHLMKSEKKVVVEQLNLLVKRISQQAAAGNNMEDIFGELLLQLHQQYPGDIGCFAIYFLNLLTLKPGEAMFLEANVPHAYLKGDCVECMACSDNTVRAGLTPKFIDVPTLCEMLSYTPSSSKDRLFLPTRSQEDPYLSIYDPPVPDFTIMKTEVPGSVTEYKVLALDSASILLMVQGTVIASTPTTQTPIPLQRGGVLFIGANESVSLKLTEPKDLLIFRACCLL

[21] = target: Paired box protein Pax-8 (Homo sapiens, UniProt Q06710); experiment: PAX8 transcriptional activity inhibition in RMG-I – RMG-I cells, luciferase, cherry-pick, dose response (AID 687027); type: functional, cell-based;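 further: luciferase reporter driven by Pax8 target thyroperoxidase promoter measured by SteadyGlo luminescence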
Chain of Paired box protein Pax-8 (Q06710 whole entry): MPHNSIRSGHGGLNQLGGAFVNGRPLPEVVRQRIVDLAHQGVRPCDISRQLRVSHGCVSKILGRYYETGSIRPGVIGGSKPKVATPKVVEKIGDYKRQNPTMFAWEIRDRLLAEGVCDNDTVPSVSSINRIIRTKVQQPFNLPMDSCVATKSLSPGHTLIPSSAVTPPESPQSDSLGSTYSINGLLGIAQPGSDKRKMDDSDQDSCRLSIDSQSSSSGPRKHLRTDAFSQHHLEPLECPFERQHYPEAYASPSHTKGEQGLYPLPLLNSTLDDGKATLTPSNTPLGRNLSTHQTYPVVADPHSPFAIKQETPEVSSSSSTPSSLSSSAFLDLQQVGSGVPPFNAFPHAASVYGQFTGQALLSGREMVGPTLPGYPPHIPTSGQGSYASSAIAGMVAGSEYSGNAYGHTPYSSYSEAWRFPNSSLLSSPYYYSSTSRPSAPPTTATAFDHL

[22] = OVCAR8 cell viability loss – plate reader, dry powder samples, PAX8 project, dose response (AID 743197); type: functional, cell-based; conditions: OVCAR-8
[23] = target: FAD-linked sulfhydryl oxidase ALR (Homo sapiens, UniProt P55789); experiment: ALR-catalysed DTT oxidation blockers – biochemical, H2O2 detection, luminescence, cherry-pick, dose response (AID 493248)
Chain of FAD-linked sulfhydryl oxidase ALR (P55789 whole entry): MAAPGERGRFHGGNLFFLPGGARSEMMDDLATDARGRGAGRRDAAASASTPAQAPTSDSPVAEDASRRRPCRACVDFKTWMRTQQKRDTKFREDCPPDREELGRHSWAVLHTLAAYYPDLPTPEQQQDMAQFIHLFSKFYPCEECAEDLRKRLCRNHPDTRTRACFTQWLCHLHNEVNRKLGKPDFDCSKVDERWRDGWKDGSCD

Chain of DNA dC->dU-editing enzyme APOBEC-3G (Q9HC16 whole entry): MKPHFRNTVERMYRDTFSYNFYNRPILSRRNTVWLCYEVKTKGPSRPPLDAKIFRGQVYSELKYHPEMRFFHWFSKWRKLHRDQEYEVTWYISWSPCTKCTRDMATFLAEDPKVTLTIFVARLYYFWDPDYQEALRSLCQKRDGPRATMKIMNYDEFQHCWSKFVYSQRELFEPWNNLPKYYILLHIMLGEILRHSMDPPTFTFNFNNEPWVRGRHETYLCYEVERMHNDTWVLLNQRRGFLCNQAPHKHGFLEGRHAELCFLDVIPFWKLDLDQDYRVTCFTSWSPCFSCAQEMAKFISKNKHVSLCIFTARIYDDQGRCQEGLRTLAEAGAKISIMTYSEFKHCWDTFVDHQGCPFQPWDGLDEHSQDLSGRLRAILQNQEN
T1 sequence (P11712 whole entry): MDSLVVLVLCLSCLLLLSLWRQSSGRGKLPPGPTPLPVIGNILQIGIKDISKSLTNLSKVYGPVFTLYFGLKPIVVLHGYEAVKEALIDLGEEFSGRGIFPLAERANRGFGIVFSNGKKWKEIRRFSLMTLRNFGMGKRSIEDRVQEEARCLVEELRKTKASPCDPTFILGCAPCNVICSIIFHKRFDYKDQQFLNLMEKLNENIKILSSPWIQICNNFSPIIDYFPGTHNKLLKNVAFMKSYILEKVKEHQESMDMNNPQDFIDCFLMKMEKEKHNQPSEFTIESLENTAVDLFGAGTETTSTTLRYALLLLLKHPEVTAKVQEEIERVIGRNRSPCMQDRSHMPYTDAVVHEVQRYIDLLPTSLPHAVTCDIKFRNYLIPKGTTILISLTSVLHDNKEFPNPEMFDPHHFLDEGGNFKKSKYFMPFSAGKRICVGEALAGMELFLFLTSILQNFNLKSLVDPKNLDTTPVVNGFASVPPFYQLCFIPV

Compound: CCCC[N+]12CCC(CC1)C(C(=O)c1cccs1)C2 (centres undefined)
- IC50 [1]: 2.56 µM (active)
- AC50 [2]: 10 µM (inconclusive)
- AC50 ([3]; read-out: AC50): 39.8 µM (inconclusive)
- IC50 [4]: 2.42 µM (active)

Compound: Cc1ccc2c(C(=O)CCl)c(C)[nH]c2c1
- AC50 [5]: 8.17 µM (active)
- EC50 [6]: 3.94 µM (active)
- EC50 [7]: 11.3 µM (active)

Compound: C/C(Cl)=C\Cn1c(N2CCCC2)nc2c1c(=O)[nH]c(=O)n2C
- AC50 [3]: inconclusive
- AC50 [8]: 15.8 µM (inconclusive)
- AC50 [9]: inconclusive

Compound: O=C(CCl)Nc1ccc(Oc2cnc3ccccc3n2)cc1
- EC50 [10]: 6.36 µM (active)
- AC50 [11]: 8.91 µM (inconclusive)
- EC50 [12]: 16.9 µM (active)
- EC50 [13]: > 150 µM (not active)
- AC50 [9]: inconclusive
- EC50 [14]: > 75 µM (inconclusive)

Compound: C=CCN(CC=C)C(=S)Nc1ccc2nsnc2c1
- AC50 [15]: 15 µM (active)
- IC50 [16]: > 66 µM (inactive)
- IC50 [17]: > 128 µM (inactive)
- IC50 [18]: > 66 µM (inactive)

Compound: C=CCNc1nc(SCC=C)nc2ccsc12
- AC50 [19]: 15.8 µM (inconclusive)
- AC50 [9]: inconclusive

Compound: CC1=CC(=Nc2c(C)n(C)n(-c3ccccc3)c2=O)C=C(C)C1=O
- IC50 [20]: 13.2 µM (active)

Compound: Cc1nc(-c2cccnc2)sc1C(=O)Nc1ccc(F)cc1F
- AC50 ([3]; read-out: AC50): 8.91 µM (inconclusive)
- AC50 [9]: inconclusive

Compound: CC1CCN(C(=O)C2CCN(S(=O)(=O)c3cccc4nonc34)CC2)CC1
- AC50 [9]: inconclusive

Compound: COCC(C)N1C(=O)Cc2c1nc(N)c1c(N)nc(N3CCN(c4ccccc4F)CC3)c(C#N)c21 (centres undefined)
- IC50 [20]: > 50 µM (not active)

Compound: CN1CCC(N(C)S(=O)(=O)c2ccc(NC(=O)COc3ccc(F)cc3)cc2)CC1
- IC50 [1]: 3.53 µM (active)
- EC50 [6]: 0.835 µM (active)
- EC50 [7]: > 60 µM (not active)
- IC50 [4]: 3.71 µM (active)

Compound: CCOc1ccc(S(=O)(=O)NCc2ccc(F)cc2)c2cccnc12
- AC50 [19]: 31.6 µM (inconclusive)
- AC50 ([3]; read-out: AC50): 7.94 µM (inconclusive)
- AC50 [9]: inconclusive

Compound: COc1ccccc1NS(=O)(=O)c1cccc(C(=O)N/N=C/c2ccc([N+](=O)[O-])o2)c1
- AC50 [5]: 4.3 µM (active)
- AC50 [21]: 6.29 µM (active)

Compound: C[C@@H]1CCCCO[C@H](CN(C)Cc2ccc(C(F)(F)F)cc2)[C@@H](C)CN([C@@H](C)CO)C(=O)c2cc(NS(=O)(=O)c3ccc(Cl)cc3)ccc2O1
- AC50 [22]: 40.7 µM (active)
- AC50 [21]: 6.82 µM (active)

Compound: CC(=O)Nc1cc(-c2ccccc2)ccc1O
- IC50 [1]: 16.5 µM (active)
- AC50 [23]: 1.1 µM (active)
- IC50 [4]: 7.17 µM (active)

Compound: O=[N+]([O-])c1cc2c(cc1/C=N/c1ccccc1)OCO2
- AC50 [19]: 25.1 µM (inconclusive)
- AC50 [2]: 10 µM (inconclusive)
- AC50 [8]: 20 µM (inconclusive)
- IC50 [20]: > 50 µM (not active)

Compound: CC(C)C(NC(=O)COc1ccc2ccccc2c1)C(=O)N/N=C/C=C/c1ccccc1 (centres undefined)
- IC50 [1]: 4.97 µM (active)
- IC50 [4]: 3.22 µM (active)

Compound: CCOCc1cnc(C)nc1NCC(=O)c1c(C)[nH]c2cc(C)ccc12
- IC50 [1]: 4.04 µM (active)
- IC50 [4]: 4.29 µM (active)
